Residue numbers refer to the chain shown, from its start. Several values for one entry are separate records, joined by “and”; a condition that tells them apart may be missing. Equal values may be shown once. Read-outs that look alike come from different tables or passages of the source.
How the values were obtained:
[1] = test system: Plasma Renin Activity (PRA); assay: Marmoset plasma renin activity (PRA) reduction on oral administration; type: in vivo, Marmoset monkeys (Callithrix jacchus); details: 0.1 MPK, IG; for inhibition at 0.1 mg/kg: Primates, po
Method: The oral activity of renin inhibitor compounds was determined in vivo in Marmoset monkeys using the following procedure. Common Marmoset monkeys (Callithrix jacchus, Charles River, both sexes, body weight 300-400 g) were placed on a modified high-protein low-sodium diet (Purina, St. Louis, Mo.) for 1 week. About 24 hours prior to the administration of test compound, Lasix (5 mg/kg, im) was given. On the day of the test, the animal was anesthetized with isoflurane, body weight recorded, and a baseline blood sample taken. Then, test compound was given intragastrically and blood samples were taken in K-EDTA for plasma renin activity at appropriate time intervals. The PRA was determined by using the protocol outlined below. Results are expressed in terms of PRA at various time intervals both before and after compound administrations (“Pre” means pretreatment levels before compound administrations). Also included is percent inhibition (% INH from pretreatment levels).
I. Angiotensin I Generation
25 ml of the above reaction mixtures, in duplicate, were incubated at 37° C. or 0° C. for 2 hours.
II. Determination of Angiotensin I Concentrations
Angiotensin I (AI) concentrations were determined by radioimmunoassays with a commercial kit from NEN Co.
III. Calculation of Plasma Renin Activity
PRA (ng AI/ml/hr)=(AI at 37°−AI at 0°)/2 hr.

[2] = molecular target: T1, renin (Marmoset Monkey plasma) (Callithrix jacchus, UniProt Q9TSZ1); assay: Renin inhibitor species specificity, marmoset plasma renin activity; type: biochemical
T1 construct: the animal plasma is the source of both the renin substrate and the renin enzyme; from tissue; host or cells: pooled marmoset plasma
T1 sequence (Q9TSZ1 61-400): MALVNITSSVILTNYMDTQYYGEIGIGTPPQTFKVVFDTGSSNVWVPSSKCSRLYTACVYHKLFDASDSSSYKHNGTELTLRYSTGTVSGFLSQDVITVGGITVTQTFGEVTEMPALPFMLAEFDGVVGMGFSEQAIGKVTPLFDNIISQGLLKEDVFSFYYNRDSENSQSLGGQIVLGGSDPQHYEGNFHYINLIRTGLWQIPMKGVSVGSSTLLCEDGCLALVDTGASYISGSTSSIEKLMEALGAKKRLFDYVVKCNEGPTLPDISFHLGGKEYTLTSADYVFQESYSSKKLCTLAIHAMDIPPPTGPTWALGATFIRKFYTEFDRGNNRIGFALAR
Method: (§1) Blood was collected in a 10 ml Becton Dickinson vacutainer tube with 0.1 ml of 15% EDTA (K3) solution (15 mg) from normal animals or high renin animals; i.e., those pre-treated with 5 mg/kg of Lasix® intramuscularly 2 times within a 6 hour interval 24 hours prior to bleeding. The blood was then centrifuged at 2500 RPM for 20 minutes and the plasma from the various species respectively pooled, aliquoted and stored in the freezer. The human plasma source was taking a prescription of an angiotensin converting enzyme inhibitor.
(§2) The plasma renin activity assay is a modification of the human renin inhibition test in that the animal plasma is the source of both the renin substrate and the renin enzyme. In a total volume of 0.1 ml, 90 mM Tris-acetate buffer, pH 7.5, 12 mM sodium EDTA, 0.012 mg/ml neomycin sulfate, 0.9 mg/ml bovine serum albumin, 1.61 mM phenylmethyl sulfonyl fluoride, 4 mM 8-hydroxyquinoline and 0.09 ml of the animal or human plasmas were incubated for 2 hours at 37° C. in a shaking water bath or at 4° C. in an ice bath in the presence or absence of renin inhibitors. The produced angiotensin I was determined by radioimmunoassay (New England Nuclear kit).
(§3) The amount of angiotensin I generated during the 2 hours at 4° C. was usually less than 5% of that activity produced at 37° C.; however, the 4° C. background values were nevertheless subtracted from the 37° C. ones for the 100% activity values. The renin inhibitors were assayed in duplicate using 5 concentrations and the data is expressed as a percent of the 100% total renin activity.

[3] = molecular target: T2, renin (Cyno Monkey plasma) (Macaca fascicularis, UniProt Q6DLS0); assay: Renin inhibitor species specificity, cyno monkey plasma renin activity; type: biochemical
T2 construct: the animal plasma is the source of both the renin substrate and the renin enzyme; from tissue; host or cells: pooled cynomolgus monkey plasma
T2 sequence (Q6DLS0 67-406): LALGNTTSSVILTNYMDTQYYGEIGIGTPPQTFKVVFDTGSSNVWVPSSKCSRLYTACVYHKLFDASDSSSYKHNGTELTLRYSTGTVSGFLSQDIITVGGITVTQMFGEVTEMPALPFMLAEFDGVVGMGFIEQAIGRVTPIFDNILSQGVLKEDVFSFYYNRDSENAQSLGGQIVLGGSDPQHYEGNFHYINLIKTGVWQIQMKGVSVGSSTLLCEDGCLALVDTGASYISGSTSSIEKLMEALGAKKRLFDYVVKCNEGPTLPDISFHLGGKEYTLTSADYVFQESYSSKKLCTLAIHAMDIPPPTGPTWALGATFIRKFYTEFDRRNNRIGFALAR
Method: as §1, §2, §3

renin (human plasma) = molecular target: T3, renin (human plasma) (Homo sapiens, UniProt P00797); assay: Renin inhibitor species specificity, human plasma renin activity; type: biochemical
T3 construct: the animal plasma is the source of both the renin substrate and the renin enzyme; from tissue
T3 sequence (P00797 67-406): T2 sequence (Q6DLS0 67-406) with A2T, L148I, A169S
Method: as §1, §2, §3

Compound: C#CC[C@H](NC(=O)C(CC(=O)N(C)CCN(C)C)Cc1ccccc1)C(=O)NC(CC1CCCCC1)[C@@H](O)C(O)CC(C)C (relative stereo) [Example 1, N1-[1R*-[[[1S,1R*-(cyclohexylmethyl)-2S*,3R*-dihydroxy-5-methylhexyl]amino]carbonyl]-3-butynyl]-N4-[2-(dimethylamino)ethyl]-N4-methyl-2S*-(phenylmethyl)butanediamide]
- % INH (from pretreatment PRA) ([1]; 60 min, individual monkeys): 76.6% and 95.6%
- PRA ([1]; 60 min from dosing, individual monkeys): 2.8 ngAI/ml/hr and 16.4 ngAI/ml/hr and 4 ngAI/ml/hr
- % INH (from pretreatment PRA) ([1]; 120 min, individual monkeys): 91.1% and 71.5% and 94.2%
- PRA ([1]; 120 min from dosing, individual monkeys): 4.1 ngAI/ml/hr and 20 ngAI/ml/hr and 5.2 ngAI/ml/hr
- % INH (from pretreatment PRA) ([1]; 240 min, individual monkeys): 89.8% and 67.8% and 45%
- PRA ([1]; 240 min from dosing, individual monkeys): 9.2 ngAI/ml/hr and 14.8 ngAI/ml/hr and 38.7 ngAI/ml/hr
- PRA ([1]; Pre (pretreatment level), individual monkeys): 45.8 ngAI/ml/hr and 70.2 ngAI/ml/hr and 90.1 ngAI/ml/hr
- inhibition at 0.1 mg/kg ([1]; 60 min, individual monkeys, read-out: % INH (from pretreatment PRA)): 93.8%
- inhibition at 0.1 mg/kg ([1]; 1 h, 60 min, mean of monkeys A-C, read-out: MEAN % INH): 88.7 ± 6%
- inhibition at 0.1 mg/kg ([1]; 2 h, 120 min, mean of monkeys A-C, read-out: MEAN % INH): 85.6 ± 7%
- inhibition at 0.1 mg/kg ([1]; 4 h, 240 min, mean of monkeys A-C, read-out: MEAN % INH): 67.5 ± 13%
- % of Total Renin Activity ([2]; 0.25 nM): 94%
- % of Total Renin Activity ([2]; 1 nM): 75%
- % of Total Renin Activity ([2]; 4 nM): 42%
- % of Total Renin Activity ([2]; 16 nM): 11%
- % of Total Renin Activity ([3]; 1 nM): 81%
- % of Total Renin Activity ([3]; 4 nM): 51%
- % of Total Renin Activity ([3]; 16 nM): 18%
- % of Total Renin Activity (renin (human plasma); 1 nM): 90%
- % of Total Renin Activity (renin (human plasma); 4 nM): 50%
- % of Total Renin Activity (renin (human plasma); 16 nM): 10%
